Source: US20070093455A1, “10-substituted tetracyclines and methods of use thereof” (priority 2005, published 2007)
pIC50: −log10 of the molar value. Converted amounts (≈) assume the structure as drawn.

Tests used:
[1] = test system: H. influenza (ATCC 49247); assay: In vitro MIC assay, H. influenza (ATCC 49247); format: cell-based; settings: read-out: MIC H. influenza (ATCC 49247)
[2] = test system: E. coli MG 1655 DWAK; assay: In vitro MIC assay, E. coli MG 1655 DWAK; format: cell-based; settings: Escherichia coli, MG1655DWAK; broth microdilution, 35° C., 18-24 hours
Description: The following assay was used to determine the efficacy of tetracycline compounds against common bacteria. Serial dilutions of compounds were prepared in microdilution plates using a Tecan robotic workstation. Mueller Hinton broth cultures of gram negative and gram positive strains were grown or adjusted to match the turbidity of a 0.5 McFarland standard. 1:200 dilutions were made in appropriate broth (cation supplemented Mueller Hinton broth or Haemophilus test medium) to allow a final inoculum of 1×10^5 cfu. Lysed horse blood was used to supplement broth for testing S. pneumoniae. The plates were incubated at 35° C. in ambient air for 18-24 hours, read spectrophotometrically, and checked manually for evidence of bacterial growth. Serial dilutions of compounds were also added to Brucella agar supplemented with laked sheep blood for P. acnes tests. A standard inoculum was transferred to the plate using a stainless steel replicator. After 48 hours of anaerobic incubation at 35° C. plates were examined. The MIC was defined as the lowest concentration of the tetracycline compound that inhibits growth. Table 3 gives the MIC (μg/mL) of selected substituted tetracycline compounds against a variety of gram positive and gram negative bacteria.

[3] = test system: S. aureus RN4250; assay: In vitro MIC assay, S. aureus RN4250; format: cell-based; settings: Staphylococcus aureus, broth microdilution, 35° C., 18-24 hours
[4] = test system: S. aureus MRSA5; assay: In vitro MIC assay, S. aureus MRSA5; format: cell-based; settings: Staphylococcus aureus, broth microdilution, 35° C., 18-24 hours
[5] = test system: COS-1 or CHO cell; assay: Mammalian cell cytotoxicity assay (Resazurin; Alamar Blue); format: cell-based; settings: COS-1 or CHO cells, 24 hour incubation
Description: To predict the in vivo risks associated with the compounds of the invention, a soluble, non-toxic redox dye (“Resazurin”; Alamar Blue) was used to assess a compound's effect on cellular metabolism. COS-1 or CHO cell suspensions were prepared, seeded into 96-well black-walled microtiter plates, and incubated overnight at 37° C., in 5% CO2 and approximately 95% humidity. On the next day, serial dilutions of test drug were prepared and transferred to cell plates. Following a 24 hour incubation period, the media/drug was aspirated, and 50 μL of resazurin was added. After a 2 hour incubation, fluorescence measurements were taken (excitation […], emission 590 nm) and toxic effects in treated versus control cells were compared based on the degree of fluorescence in each well.

[6] = test system: S. aureus RN450; assay: In vitro MIC assay, S. aureus RN450; format: cell-based; settings: Staphylococcus aureus, broth microdilution, 35° C., 18-24 hours
[7] = test system: E. coli translation; assay: In vitro translation assay for inhibition of bacterial protein synthesis (E. coli S30 Extract System, luciferase); format: biochemical; settings: 37° C., 1 hour, luciferase luminescence
Description: As a further measure of antibacterial activity, an E. coli S30 Extract System was used to quantitate inhibition of E. coli translation by tetracycline derivatives. This system contained all required components for translation, including a nucleic acid template which, when translated, produces functional luciferase. The reactions were set up with E. coli S30 extract, amino acids, DNA template and selected tetracycline compounds at concentrations of 100, 50, 25, 10, 5, and 1 μg/ml. The reactions were incubated at 37° C. for 1 hour and analyzed by adding the reaction mix to Steady-Glo Luciferase Assay substrate (Promega, Madison Wis.). Luminescence was measured with the Wallac Victor5 plate reader and inhibition is calculated by comparing luciferase activity in experimental reactions versus controls.

[8] = test system: S. pneumoniae 157E; assay: In vitro MIC assay, S. pneumoniae 157E; format: cell-based; settings: Streptococcus pneumoniae, broth supplemented with lysed horse blood, 35° C., 18-24 hours
[9] = test system: E. coli (ATCC 25922); assay: In vitro MIC assay, E. coli (ATCC 25922); format: cell-based; settings: Escherichia coli, ATCC25922; broth microdilution, 35° C., 18-24 hours
[10] = test system: P. aeruginosa K1033; assay: In vitro MIC assay, P. aeruginosa K1033; format: cell-based; settings: Pseudomonas aeruginosa, broth microdilution, 35° C., 18-24 hours
[11] = test system: Mouse 3T3 fibroblast cells; assay: Phototoxicity assay (neutral red); format: cell-based; settings: 3T3 cells; for phototoxicity at 30 μM, incubated in the UV light: UV light 1.6-1.8 mW/cm^2, 30 μM
Description: Mouse 3T3 fibroblast cells were harvested and plated at a concentration of 1×10^5 cells/mL. Drug dilutions were made in HBSS and added to the plates. Duplicate plates were then incubated in the dark (for controls), or under UV light (meter reading of 1.6-1.8 mW/cm^2) for 50 minutes. Cells were then washed with HBSS, fresh medium was added, and plates were then incubated overnight. The following day, neutral red was added as an indicator of cell viability and plates were incubated for an additional 3 hours. Cells were then washed with HBSS and a solution of 50% EtOH, 10% glacial acetic acid is added. After a 20 minute incubation period, plates absorbance at 535 nm were read using a Wallac Victor 5 spectrophotometer. The phototoxicity in light-treated and control cultures was then compared.

Compound	MIC [1] [µg/mL]	MIC [2] [µg/mL]	MIC [3] [µg/mL]	MIC [4] [µg/mL]	cytotoxicity at 75 μg/mL [5]	MIC [6] [µg/mL]	IC20 [7] [µM]	pIC50 [7]	MIC [8] [µg/mL]	MIC [9] [µg/mL]	MIC [10] [µg/mL]	phototoxicity at 150 μM, incubated in the dark [11]	phototoxicity at 30 μM, incubated in the UV light [11]
CN(C)c1cccc2c1CC1CC3[C@@H](N(C)C)C(O)=C(C(N)=O)C(=O)[C@@]3(O)C(O)=C1C2=O (stereo partly drawn) [C]	22 to 43 (≈ 49.8 to 97.4 µM)	0 to 21	0 to 21	44 to 64 (≈ 99.7 to 145 µM)	minimal cytotoxicity	0 to 21	> 100	< 4.00	0 to 21	44 to 64 (≈ 99.7 to 145 µM)	0 to 21	not to be appreciably phototoxic	
CN(C)c1cc(C(=O)O)cc2c1CC1CC3[C@H](N(C)C)C(O)=C(C(N)=O)C(=O)[C@@]3(O)C(O)=C1C2=O (stereo partly drawn) [D]	44 to 64 (≈ 90.6 to 132 µM)	44 to 64 (≈ 90.6 to 132 µM)	44 to 64 (≈ 90.6 to 132 µM)	44 to 64 (≈ 90.6 to 132 µM)	minimal cytotoxicity	44 to 64 (≈ 90.6 to 132 µM)	< 100	> 4.00	44 to 64 (≈ 90.6 to 132 µM)	44 to 64 (≈ 90.6 to 132 µM)	44 to 64 (≈ 90.6 to 132 µM)	not to be appreciably phototoxic	minimally phototoxic
CN(C)c1cccc2c1CC1CC3CC(O)=C(C(N)=O)C(=O)[C@@]3(O)C(O)=C1C2=O (stereo partly drawn) [E]	22 to 43 (≈ 55.2 to 108 µM)	0 to 21	0 to 21	0 to 21		0 to 21	> 100	> 4.00	44 to 64 (≈ 110 to 161 µM)	44 to 64 (≈ 110 to 161 µM)	0 to 21	not to be appreciably phototoxic	
NC(=O)C1=C(O)CC2CC3Cc4ccccc4C(=O)C3=C(O)[C@]2(O)C1=O (stereo partly drawn) [F]	0 to 21	0 to 21	0 to 21	0 to 21		0 to 21	< 100	> 4.00	22 to 43 (≈ 61.9 to 121 µM)	44 to 64 (≈ 124 to 180 µM)	0 to 21	not to be appreciably phototoxic	
CN(C)c1cc(C(=O)O)cc2c1CC1CC3[C@@H](N(C)C)C(O)=C(C(N)=O)C(=O)[C@@]3(O)C(O)=C1C2=O (stereo partly drawn) [G]	44 to 64 (≈ 90.6 to 132 µM)	44 to 64 (≈ 90.6 to 132 µM)	44 to 64 (≈ 90.6 to 132 µM)	44 to 64 (≈ 90.6 to 132 µM)	minimal cytotoxicity	44 to 64 (≈ 90.6 to 132 µM)	< 100	> 4.00	44 to 64 (≈ 90.6 to 132 µM)	44 to 64 (≈ 90.6 to 132 µM)	44 to 64 (≈ 90.6 to 132 µM)	not to be appreciably phototoxic	minimally phototoxic
CC(=O)c1cc2c(c(N(C)C)c1)CC1CC3[C@H](N(C)C)C(O)=C(C(N)=O)C(=O)[C@@]3(O)C(O)=C1C2=O (stereo partly drawn) [H]	44 to 64 (≈ 91 to 132 µM)	22 to 43 (≈ 45.5 to 88.9 µM)	44 to 64 (≈ 91 to 132 µM)	44 to 64 (≈ 91 to 132 µM)	minimal cytotoxicity	44 to 64 (≈ 91 to 132 µM)	< 100	> 4.00	44 to 64 (≈ 91 to 132 µM)	44 to 64 (≈ 91 to 132 µM)	22 to 43 (≈ 45.5 to 88.9 µM)	not to be appreciably phototoxic	
